pIC50: −log10 of the molar value.
What was measured:
Format in all cases: cell-based
[1] = system: Target C CJ mRNA; experiment: Gene panel canonical junction qPCR assay: Target C; conditions: Table 3, concentration having 50% response in CJ decrease, read-out: Target C IC50 (decrease in CJ mRNA levels)
Experimental: (§1) Compounds described herein were used to modulate RNA transcript abundance in cells. The expression of a target mRNA was measured by detecting the formation of an exon-exon junction in the canonical transcript (CJ). A compound mediated exon-inclusion event was detected by observing an increase in formation of a new junction with an alternative exon (AJ). Real-time qPCR assays were used to detect these splicing switches and interrogate the potency of various compounds towards different target genes. A high-throughput real time quantitative PCR (RT-qPCR) assay was developed to measure these two isoforms of the mRNA (CJ and AJ) for an exemplary gene, HTT, together with a control housekeeping gene, GAPDH or GUSB or PPIA, used for normalization. Briefly, the A673 or K562 cell line was treated with various compounds described herein (e.g., compounds of Formula (I)). After treatment, the levels of the HTT mRNA targets were determined from each sample of cell lysate by cDNA synthesis followed by qPCR.
(§2) The A673 cell line was cultured in DMEM with 10% FBS. Cells were diluted with full growth media and plated in a 96-well plate (15,000 cells in 100 ul media per well). The plate was incubated at 37° C. with 5% CO2 for 24 hours to allow cells to adhere. An 11-point 3-fold serial dilution of the compounds was made in DMSO then diluted in media in an intermediate plate. Compounds were transferred from the intermediate plate to the cell plate with the top dose at a final concentration of 10 uM in the well. Final DMSO concentration was kept at or below 0.25%. The cell plate was returned to the incubator at 37° C. with 5% CO2 for an additional 24 hours.
(§3) The K562 cell line was cultured in IMDM with 10% FBS. For K562, cells were diluted with full growth media and plated in either a 96-well plate (50,000 cells in 50 uL media per well) or a 384-well plate (8,000-40,000 cells in 45 uL media per well). An 11-point 3-fold serial dilution of the compounds were made in DMSO then diluted in media in an intermediate plate. Compound was transferred from the intermediate plate to the cell plate with the top dose at a final concentration of 10 uM in the well. Final DMSO concentration was kept at or below 0.25%. Final volume was 100 uL for 96-well plate and 50 uL for 384-well plate. The cell plate was then placed in an incubator at 37° C. with 5% CO2 for 24 hours.
(§4) The cells were then gently washed with 50 uL-100 uL cold PBS before proceeding to addition of lysis buffer. 30 uL-50 uL of room temperature lysis buffer with DNAse I (and optionally RNAsin) was added to each well. Cells were shaken/mixed thoroughly at room temperature for 5-10 minutes for lysis to take place and then 3 uL-5 uL of room temperature stop solution was added and wells were shaken/mixed again. After 2-5 minutes, the cell lysate plate was transferred to ice for RT-qPCR reaction setup. The lysates could also be frozen at −80° C. for later use.
(§5) In some cases, a direct lysis buffer was used. An appropriate volume of 3× lysis buffer (10 mM Tris, 150 mM NaCl, 1.5%-2.5% Igepal and 0.1-1 U/uL RNAsin, pH 7.4) was directly added to either K562 or A673 cells in media and mixed by pipetting 3 times. The plates were then incubated at room temperature with shaking/rocking for 20-50 minutes to allow for lysis to take place. After this time, the cell lysate plate was transferred to ice to set up for the RT-qPCR reactions. The lysates could also be frozen at −80° C. for later use.
(§6) To set up 10 uL RT-qPCR reactions, cell lysates were transferred to 384-well qPCR plates containing the master mix according to the table below. The plates were sealed, gently vortexed, and spun down before the run. The volumes were adjusted accordingly in some instances where the reaction was carried in 20 uL. The table below summarizes the components of the RT-qPCR reactions:
(§7) The RT-qPCR reaction was performed using a QuantStudio (ThermoFisher) under the following fast cycling conditions. […]

[2] = system: HTT AJ mRNA; experiment: Splicing assay (RT-qPCR): increase in HTT alternative junction (AJ) mRNA; conditions: A673 or K562 cells, 24 hours treatment; concentration having 50% response in AJ mRNA increase
Experimental: as §1, §2, §3, §4, §5, §6, §7

[3] = system: HTT CJ mRNA; experiment: Splicing assay (RT-qPCR): decrease in HTT canonical junction (CJ) mRNA; conditions: A673 or K562 cells, 24 hours treatment; concentration having 50% response in CJ mRNA decrease
Experimental: as §1, §2, §3, §4, §5, §6, §7

[4] = system: SMN2 CJ mRNA; experiment: Gene panel canonical junction qPCR assay: SMN2; conditions: Table 3, concentration having 50% response in CJ decrease, read-out: SMN2 IC50 (decrease in CJ mRNA levels)
Experimental: as §1, §2, §3, §4, §5, §6, §7

[5] = system: HTT CJ mRNA; experiment: Gene panel canonical junction qPCR assay: HTT; conditions: Table 3, concentration having 50% response in CJ decrease, read-out: HTT IC50 (decrease in CJ mRNA levels)
Experimental: as §1, §2, §3, §4, §5, §6, §7

SMILES	pIC50 [1]	pIC50 [4]	pIC50 [5]	AC50 [2] [nM]	AC50 [3] [nM]
Cc1cn2cc(NC(=O)c3sc([C@@H]4CCN[C@@H](C)C4)cc3F)cc(F)c2n1 [Compound 116, 3-fluoro-N-[8-fluoro-2-methylimidazo[1,2-a]pyridin-6-yl]-5-[(2S,4R)-2-methylpiperidin-4-yl]thiophene-2-carboxamide]	5.00 to 6.00	> 7.00	6.00 to 7.00	100 to 1000	100 to 1000
Cc1cn2cc(NC(=O)c3sc([C@H]4CCN[C@H](C)C4)cc3F)cc(F)c2n1 [Compound 117, 3-fluoro-N-[8-fluoro-2-methylimidazo[1,2-a]pyridin-6-yl]-5-[(2R,4S)-2-methylpiperidin-4-yl]thiophene-2-carboxamide]	5.00 to 6.00	6.00 to 7.00	6.00 to 7.00	1000 to 10000	100 to 1000
Cc1cn2cc(NC(=O)c3sc(N4CCNC(C)(C)C4)cc3F)cc(F)c2n1 [Compound 131, 5-(3,3-dimethylpiperazin-1-yl)-3-fluoro-N-[8-fluoro-2-methylimidazo[1,2-a]pyridin-6-yl] thiophene-2-carboxamide]	< 8.00	6.00 to 7.00	5.00 to 6.00	1000 to 10000	1000 to 10000
Cc1cn2cc(NC(=O)c3sc(N4CCNC5(CC5)C4)cc3F)cc(F)c2n1 [Compound 132, 5-[4,7-diazaspiro[2.5]octan-7-yl]-3-fluoro-N-[8-fluoro-2-methylimidazo[1,2-a]pyridin-6-yl]thiophene-2-carboxamide]	< 8.00	5.00 to 6.00	< 8.00	> 10000	> 10000
Cc1cn2cc(NC(=O)c3sc(N4CC(C)(C)NC(C)(C)C4)cc3F)cc(F)c2n1 [Compound 133, 3-fluoro-N-[8-fluoro-2-methylimidazo[1,2-a]pyridin-6-yl]-5-(3,3,5,5-tetramethylpiperazin-1-yl)thiophene-2-carboxamide]	< 8.00	5.00 to 6.00	< 8.00	> 10000	> 10000
Cc1cn2cc(NC(=O)c3sc(N4CC5(CNC5)C4)cc3F)cc(F)c2n1 [Compound 134, 5-[2,6-diazaspiro[3.3]heptan-2-yl]-3-fluoro-N-[8-fluoro-2-methylimidazo[1,2-a]pyridine-6-yl]thiophene-2-carboxamide]	5.00 to 6.00	6.00 to 7.00	5.00 to 6.00	1000 to 10000	1000 to 10000
Cc1cn2cc(NC(=O)c3sc(N4CCC(N5CCCC5)C4)cc3F)cc(F)c2n1 (stereo not drawn) [Compound 136, 5-[[1,3′-bipyrrolidin]-1′-yl]-3-fluoro-N-[8-fluoro-2-methylimidazo[1,2-a]pyridin-6-yl]thiophene-2-carboxamide]	< 8.00	6.00 to 7.00	< 8.00	> 10000	> 10000
Cc1cn2cc(NC(=O)c3sc(N4C[C@H]5CC[C@@H](C4)N5)cc3F)cc(F)c2n1 [Compound 143, 5-[(1R,5S)-3,8-diazabicyclo[3.2.1]octan-3-yl]-3-fluoro-N-[8-fluoro-2-methylimidazo[1,2-a]pyridin-6-yl]thiophene-2-carboxamide]	5.00 to 6.00	5.00 to 6.00	< 8.00	> 10000	> 10000

Now from value to compound, other results behind:

pIC50 [1]	pIC50 [4]	pIC50 [5]	SMILES	AC50 [2] [nM]	AC50 [3] [nM]
> 7.00	6.00 to 7.00	< 8.00	Cc1cn2cc(NC(=O)c3sc(N4CCN(C)CC4)cc3F)cc(F)c2n1 [Compound 127, 3-fluoro-N-[8-fluoro-2-methylimidazo [1,2-a]pyridin-6-yl]-5-(4-methylpiperazin-1-yl) thiophene-2-carboxamide]	> 10000	> 10000
< 8.00	5.00 to 6.00	< 8.00	Cc1cn2cc(NC(=O)c3sc(N4CCN(C)C(C)C4)cc3F)cc(F)c2n1 (stereo not drawn) [Compound 129, 5-(3,4-dimethylpiperazin-1-yl)-3-fluoro-N-[8-fluoro-2-methylimidazo[1,2-a]pyridin-6-yl]thiophene-2-carboxamide]	> 10000	> 10000
6.00 to 7.00	< 8.00	< 8.00	Cc1cn2cc(NC(=O)c3sc(N4CCC(NC(C)(C)C)C4)cc3F)cc(F)c2n1 (stereo not drawn) [Compound 137, 5-[3-(tert-butylamino)pyrrolidin-1-yl]-3-fluoro-N-[8-fluoro-2-methylimidazo[1,2-a]pyridin-6-yl]thiophene-2-carboxamide]	> 10000	> 10000
< 8.00	6.00 to 7.00	5.00 to 6.00	Cc1cn2cc(NC(=O)c3sc(N4CCC(N(C)C)C4)cc3F)cc(F)c2n1 (stereo not drawn) [Compound 138, 5-[3-(dimethylamino)pyrrolidin-1-yl]-3-fluoro-N-[8-fluoro-2-methylimidazo[1,2-a]pyridin-6-yl]thiophene-2-carboxamide]	> 10000	1000 to 10000
< 8.00	5.00 to 6.00	< 8.00	Cc1cn2cc(NC(=O)c3sc(N4CCN5CCCC5C4)cc3F)cc(F)c2n1 (stereo not drawn) [Compound 139, 3-fluoro-N-[8-fluoro-2-methylimidazo[1,2-a]pyridin-6-yl]-5-[hexahydro-1H-pyrrolo[1,2-a]pyrazin-2-yl] thiophene-2-carboxamide]	> 10000	> 10000
< 8.00	5.00 to 6.00	< 8.00	Cc1cn2cc(NC(=O)c3sc(N4CCC(NC(C)(C)C)CC4)cc3F)cc(F)c2n1 [Compound 141, 5-[4-(tert-butylamino)piperidin-1-yl]-3-fluoro-N-[8-fluoro-2-methylimidazo[1,2-a]pyridin-6-yl]thiophene-2-carboxamide]	> 10000	> 10000
5.00 to 6.00	5.00 to 6.00	5.00 to 6.00	CCNC1CCN(c2cc(F)c(C(=O)Nc3cc(F)c4nc(C)cn4c3)s2)CC1 [Compound 142, 5-[4-(ethylamino)piperidin-1-yl]-3-fluoro-N-[8-fluoro-2-methylimidazo [1,2-a]pyridin-6-yl]thiophene-2-carboxamide]	1000 to 10000	1000 to 10000

From patent publication US20230142338A1, “THIOPHENYL DERIVATIVES USEFUL FOR MODULATING NUCLEIC ACID SPLICING” (REMIX THERAPEUTICS INC., priority 2020, published 2023)
